Results taken from patent publication US9023623B2, “Method for preparing of allicin injection and low-temperature continuous stirring ultrafiltration device thereof” (Xinjiang Ailexin Pharmaceutical Co., Ltd., priority 2010, dated 2015).
≈ marks a conversion by molar mass, not a printed value.

Legend:
[1] = test system: Methicillin Resistant Staphylococcus Aureus (MRSA); test: Anti-pathogenic microorganism test; type: cell-based
Acinetobacter = test: Anti-pathogenic microorganism test; type: cell-based
Escherichia coli = test: Anti-pathogenic microorganism test; type: cell-based
Helicobacter pylori = test: Anti-pathogenic microorganism test; type: cell-based
Candida albicans = test: Anti-pathogenic microorganism test; type: cell-based
[2] = room temperature; background description; cited from earlier work
[3] = background description; cited from earlier work

MIC ([1]; Staphylococcus aureus): 10 to 30 µg/mL (≈ 61.6 to 185 µM)
MIC (Helicobacter pylori): 10 to 30 µg/mL (≈ 61.6 to 185 µM)
Compound: C=CCS[S+]([O-])CC=C (stereo not shown) [Allicin, thio-2-propene-1-sulfinic acid S-allyl ester]
bactericidal activity [1]: obviously bactericidal activity
bactericidal activity (Acinetobacter): obviously bactericidal activity
bactericidal activity (Escherichia coli): obviously bactericidal activity
bactericidal activity (Helicobacter pylori): obviously bactericidal activity
bactericidal activity (Candida albicans): obviously bactericidal activity
sensitivity to allicin (Candida albicans): sensitive
solubility in water [2]: slightly soluble in water
decomposition when exposed to air [3]: decomposes and deteriorates within a few hours
